Assay results from patent US5053070A, “Pyrimidine derivatives, preparation processes thereof, herbicide containing the same, and herbicidal compositions containing the same along with other active ingredient” (Mitsui Toatsu Chemicals, Incorporated, priority 1988, dated 1991).

Key:
Type in all cases: in vivo
[1] = tested on: peanut; assay: Upland foliar application test (Test 3), crop injury; settings: 30 g ai/a, foliar spray at 2-3 leaves, 30th day
How it was run: (§1)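 Foliar post-emergence spray: diluted emulsifiable formulation applied at 5 l/are by pressure ULV sprayer once plants in upland-soil greenhouse pots reached 2-3 leaves. Degree of weed damage and crop injury rated on day 30 post-application.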

[2] = tested on: soybean; assay: as above; settings: 30 g ai/a, foliar spray at 2-3 leaves, 30th day
How it was run: as §1

[3] = tested on: cotton; assay: as above; settings: 30 g ai/a, foliar spray at 2-3 leaves, 30th day
How it was run: as §1

[4] = tested on: rice; assay: Treatment of soil under submerged condition, pre-emergence (Test 4), injury; settings: 30 g ai/a granule, 30 days later
How it was run: (§2)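 Wagner pots of soil were seeded or planted with weed seeds or tubers under flooding, then 2–3-leaf rice seedling pairs were transplanted and grown in a greenhouse. One day later, before weed emergence, pots received a granule of the test composition at a predetermined amount. Weed emergence and rice injury were scored 30 days later.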

[5] = tested on: bulrush; assay: Treatment of soil under submerged condition, post-emergence (Test 5); settings: 30 g ai/a granule, 30 days later
How it was run: (§3)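 Weeds seeded or tubers planted in flooded soil in Wagner pots, with 2–3-leaf rice seedlings transplanted in pairs and grown in greenhouse. At barnyardgrass two-leaf stage, pots received a granule of the test composition at a predetermined amount. Weed emergence and rice injury were scored 30 days later.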

[6] = tested on: barnyardgrass; assay: as above; settings: 30 g ai/a granule, post-emergence (barnyardgrass two-leaf stage), 30 days later
How it was run: as §3

[7] = tested on: Sagittaria pygmaea; assay: as above; settings: 30 g ai/a granule, 30 days later
How it was run: as §3

[8] = tested on: bulrush; assay: Treatment of soil under submerged condition, pre-emergence (Test 4); settings: 30 g ai/a granule, 30 days later
How it was run: as §2

[9] = tested on: barnyardgrass; assay: as above; settings: 30 g ai/a granule, 30 days later
How it was run: as §2

[10] = tested on: Sagittaria pygmaea; assay: as above; settings: 30 g ai/a granule, 30 days later
How it was run: as §2

[11] = tested on: green foxtail; assay: Upland soil application test (Test 2); settings: 30 g ai/a, soil spray before emergence, 30 days later
How it was run: (§4)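 Weed damage was rated at 30 days by comparing air-dried plant weights against untreated controls. Compound had been applied as a water-diluted wettable powder (10 l per are), sprayed on the soil surface one day after sowing, before emergence, with weed seed incorporated in upland field soil.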

[12] = tested on: johnsongrass; assay: Upland soil application test (Test 2); settings: 30 g ai/a, soil spray before emergence, 30 days later
How it was run: as §4

[13] = tested on: large crabgrass; assay: Upland soil application test (Test 2); settings: 30 g ai/a, soil spray before emergence, 30 days later
How it was run: as §4

[14] = tested on: barnyardgrass; assay: Upland soil application test (Test 2); settings: 30 g ai/a, soil spray before emergence, 30 days later
How it was run: as §4

[15] = tested on: redroot pigweed; assay: Upland soil application test (Test 2); settings: 30 g ai/a, soil spray before emergence, 30 days later
How it was run: as §4

[16] = tested on: common lambsquarters; assay: Upland soil application test (Test 2); settings: 30 g ai/a, soil spray before emergence, 30 days later
How it was run: as §4

[17] = tested on: foxtail meadow; assay: Upland soil application test (Test 2); settings: 30 g ai/a, soil spray before emergence, 30 days later
How it was run: as §4

[18] = tested on: green foxtail; assay: Upland foliar application test by mixed formulations (Test 7); settings: applied alone, 30th day; for pest or weed control at 300 g/ha / pest or weed control at 1000 g/ha: Setaria viridis, 720 h, read-out: Herbicidal effects (%) Green foxtail Ea; for pest or weed control at 1000 g/ha: 1 kg/ha
How it was run: (§5)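 Foliar spray of two-compound mixed emulsion, diluted with water, at 5 l per are via ULV sprayer onto weeds at 2–3 leaf stage in upland soil pots, greenhouse. Effect observed 30 days after spraying. Measured mixture activity (Ea) compared with Colby expected value (Ec) derived from single-ingredient growth inhibition rates.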

[19] = tested on: barnyardgrass; assay: as above; settings: Echinochloa crus-galli, 720 h, applied alone, 30th day, read-out: Herbicidal effects (%) Barnyardgrass Ea; for pest or weed control at 300 g/ha: 0.3 kg/ha; for pest or weed control at 1000 g/ha: 1 kg/ha
How it was run: as §5

[20] = tested on: morningglories; assay: as above; settings: Ipomoea, 720 h, applied alone, 30th day, read-out: Herbicidal effects (%) Morningglory Ea; for pest or weed control at 300 g/ha: 0.3 kg/ha; for pest or weed control at 1000 g/ha: 1 kg/ha
How it was run: as §5

Row | Structure (SMILES) | Injury Peanut [1] | Injury Soybean [2] | Injury Cotton [3] | Injury Rice [4] | Herbicidal effects Bulrush [5] | Herbicidal effects Barnyardgrass [6] | Herbicidal effects Sagittaria Pygmaea [7] | Herbicidal effects Bulrush [8] | Herbicidal effects Barnyardgrass [9] | Herbicidal effects Sagittaria Pygmaea [10] | Herbicidal effects Green foxtail [11] | Herbicidal effects Johnsongrass [12] | Herbicidal effects Large crabgrass [13] | Herbicidal effects Barnyardgrass [14] | Herbicidal effects Redroot pigweed [15] | Herbicidal effects Common lambsquarters [16] | Herbicidal effects Foxtail meadow [17] | pest or weed control at 300 g/ha ([18]; 0.3 kg/ha) [%] | pest or weed control at 300 g/ha [19] [%] | pest or weed control at 300 g/ha [20] [%] | also measured
1 | COc1cc(OC)nc(Oc2ccccc2C=NOCC#Cc2ccccc2)n1 [compound 42] | 0 (91-100 (No damages)) | 0 (91-100 (No damages)) | 0 (91-100 (No damages)) | 0 (91-100 (No damages)) | 4 (6-10 (Severe damages)) | 5 (0-5 (Death)) | 5 (0-5 (Death)) | 4 (6-10 (Severe damages)) | 5 (0-5 (Death)) | 5 (0-5 (Death)) | 5 (0-5 (Death)) | 5 (0-5 (Death)) | 4 (6-10 (Severe damages)) | 5 (0-5 (Death)) | 3 (11-40 (Medium damages)) | 4 (6-10 (Severe damages)) | 5 (0-5 (Death)) | 50 | 50 | 10 | –
2 | COc1cc(OC)nc(Oc2ccccc2C=NOCC=Cc2ccccc2)n1 [Compound No. 9] | 0 (91-100 (No damages)) | 0 (91-100 (No damages)) | 0 (91-100 (No damages)) | 1 (71-90 (Slight damages)) | 5 (0-5 (Death)) | 5 (0-5 (Death)) | 5 (0-5 (Death)) | 4 (6-10 (Severe damages)) | 5 (0-5 (Death)) | 5 (0-5 (Death)) | 5 (0-5 (Death)) | 5 (0-5 (Death)) | 5 (0-5 (Death)) | 5 (0-5 (Death)) | 5 (0-5 (Death)) | 4 (6-10 (Severe damages)) | 5 (0-5 (Death)) | 70 | 50 | 0 | Herbicidal effects (%) Green foxtail Ea ([18]; 0.3 kg/ha): 70%
3 | COc1cc(OC)nc(Oc2ccccc2C=NOCc2cccc(C)c2)n1 [compound 20] | 0 (91-100 (No damages)) | 0 (91-100 (No damages)) | 0 (91-100 (No damages)) | 0 (91-100 (No damages)) | 4 (6-10 (Severe damages)) | 5 (0-5 (Death)) | 4 (6-10 (Severe damages)) | 4 (6-10 (Severe damages)) | 5 (0-5 (Death)) | 4 (6-10 (Severe damages)) | 5 (0-5 (Death)) | 5 (0-5 (Death)) | 5 (0-5 (Death)) | 3 (11-40 (Medium damages)) | 5 (0-5 (Death)) | 4 (6-10 (Severe damages)) | 5 (0-5 (Death)) | 10 | 30 | 10 | –
4 | CC#CCON=Cc1ccccc1Oc1nc(OC)cc(OC)n1 [compound 10] | 0 (91-100 (No damages)) | 0 (91-100 (No damages)) | 0 (91-100 (No damages)) | 1 (71-90 (Slight damages)) | 5 (0-5 (Death)) | 5 (0-5 (Death)) | 5 (0-5 (Death)) | 4 (6-10 (Severe damages)) | 5 (0-5 (Death)) | 4 (6-10 (Severe damages)) | 4 (6-10 (Severe damages)) | 4 (6-10 (Severe damages)) | 3 (11-40 (Medium damages)) | 3 (11-40 (Medium damages)) | 3 (11-40 (Medium damages)) | 3 (11-40 (Medium damages)) | 4 (6-10 (Severe damages)) | – | – | – | pest or weed control at 1000 g/ha [18]: 20%; pest or weed control at 1000 g/ha [19]: 10%; pest or weed control at 1000 g/ha [20]: 0%
5 | COc1cc(OC)nc(Oc2ccccc2C=NO)n1 [Compound No. 24, 2-(4,6-dimethoxy-2-pyrimidinyloxy)-benzaloxime] | 0 (91-100 (No damages)) | 1 (71-90 (Slight damages)) | 1 (71-90 (Slight damages)) | 1 (71-90 (Slight damages)) | 5 (0-5 (Death)) | 5 (0-5 (Death)) | 4 (6-10 (Severe damages)) | 2 (41-70 (Small damages)) | 3 (11-40 (Medium damages)) | 4 (6-10 (Severe damages)) | 5 (0-5 (Death)) | 5 (0-5 (Death)) | 4 (6-10 (Severe damages)) | 4 (6-10 (Severe damages)) | 4 (6-10 (Severe damages)) | 4 (6-10 (Severe damages)) | 5 (0-5 (Death)) | 20 | 50 | 0 | –
6 | COc1cc(OC)nc(Oc2ccccc2C=NOCC=CCl)n1 [compound 11] | 0 (91-100 (No damages)) | 0 (91-100 (No damages)) | 0 (91-100 (No damages)) | 1 (71-90 (Slight damages)) | 4 (6-10 (Severe damages)) | 5 (0-5 (Death)) | 4 (6-10 (Severe damages)) | 3 (11-40 (Medium damages)) | 4 (6-10 (Severe damages)) | 4 (6-10 (Severe damages)) | 5 (0-5 (Death)) | 5 (0-5 (Death)) | 5 (0-5 (Death)) | 5 (0-5 (Death)) | 5 (0-5 (Death)) | 4 (6-10 (Severe damages)) | 5 (0-5 (Death)) | – | – | – | pest or weed control at 1000 g/ha [18]: 10%; pest or weed control at 1000 g/ha [19]: 30%; pest or weed control at 1000 g/ha [20]: 0%
7 | C=C(Cl)CON=Cc1ccccc1Oc1nc(OC)cc(OC)n1 [Compound No. 14] | 0 (91-100 (No damages)) | 0 (91-100 (No damages)) | 0 (91-100 (No damages)) | 0 (91-100 (No damages)) | 5 (0-5 (Death)) | 5 (0-5 (Death)) | 4 (6-10 (Severe damages)) | 3 (11-40 (Medium damages)) | 5 (0-5 (Death)) | 5 (0-5 (Death)) | 5 (0-5 (Death)) | 5 (0-5 (Death)) | 5 (0-5 (Death)) | 5 (0-5 (Death)) | 4 (6-10 (Severe damages)) | 4 (6-10 (Severe damages)) | 5 (0-5 (Death)) | 30 | 85 | 0 | –
